Assays:
[1] = system: Beet Armyworm (Spodoptera exigua); experiment: Bioassay on Beet Armyworm (BAW), 128-well diet tray assay; format: in vivo; conditions: Spodoptera exigua, 168 h; percent mortality of second instar larvae, 50 μg/cm^2 on artificial diet, five to seven days, 25° C.; Table 3A; read-out: BAW Rating
Summary of the method: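 Second-instar larvae (one to five per well) were placed on artificial diet surface-treated with 50 μg/cm^2 compound in acetone-water and held at 25 °C, 14:10 light-dark, for five to seven days. Percent mortality was averaged over eight wells.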

[2] = system: Cabbage Looper (Trichoplusia ni); experiment: Bioassay on Cabbage Looper (CL), 128-well diet tray assay; format: in vivo; conditions: percent mortality of second instar larvae, 50 μg/cm^2 on artificial diet, five to seven days, 25° C.; Table 3A
Description: Certain molecules disclosed in this document were tested against BAW and CEW and CL using procedures described in the following examples. In the reporting of the results, the “BAW & CEW & CL Rating Table” was used (See Table Section).
Bioassays on CL (Trichoplusia ni)
Bioassays on CL were conducted using a 128-well diet tray assay. One to five second instar CL larvae were placed in each well (3 mL) of the diet tray that had been previously filled with 1 mL of artificial diet to which 50 μg/cm^2 of the test compound (dissolved in […] of 90:10 acetone-water mixture) had been applied (to each of eight wells) and then allowed to dry. Trays were covered with a clear self-adhesive cover, and held at 25° C., 14:10 light-dark for five to seven days. Percent mortality was recorded for the larvae in each well; activity in the eight wells was then averaged. The results are indicated in the table entitled “Table 3A: Assay Results” (See Table Section).

[3] = system: Green Peach Aphid (Myzus persicae); experiment: Bioassay on Green Peach Aphid (GPA), foliar spray on cabbage seedlings; format: in vivo; conditions: 72 h, corrected % control (Abbott), 200 ppm spray on cabbage seedlings, three days, Table 3A, read-out: GPA Rating
Description: Certain molecules disclosed in this document were tested against GPA using procedures described in the following example. In the reporting of the results, the “GPA Rating Table” was used (See Table Section). Cabbage seedlings grown in 3-inch pots, with 2-3 small (3-5 cm) true leaves, were used as test substrate. The seedlings were infested with 20-50 GPA (wingless adult and nymph stages) one day prior to chemical application. Four pots with individual seedlings were used for each treatment. Test compounds (2 mg) were dissolved in 2 mL of acetone/MeOH (1:1) solvent, forming stock solutions of 1000 ppm test compound. The stock solutions were diluted 5× with 0.025% Tween 20 in water to obtain the solution at 200 ppm test compound. A hand-held aspirator-type sprayer was used for spraying a solution to both sides of […] leaves until runoff. Reference plants (solvent check) were sprayed with the diluent only containing 20% by volume of acetone/MeOH (1:1) solvent. Treated plants were held in a holding room for three days at approximately 25° C. and ambient relative humidity (RH) prior to grading. Evaluation was conducted by counting the number of live aphids per plant under a microscope. Percent Control was measured by using Abbott's correction formula (W. S. Abbott, “A Method of Computing the Effectiveness of an Insecticide” J. Econ. Entomol. 18 (1925), pp. 265-267) as follows. Corrected % Control=100*(X−Y)/X • where • X=No. of live aphids on solvent check plants and • Y=No. of live aphids on treated plants The results are indicated in the table entitled “Table 3: Assay Results” (See Table Section).

Compound	melting point [°C]	pest or weed control at 50 µg/cm2, 50 µg/cm2 [1] [%]	CL Rating [2]	pest or weed control at 200 ppm [3] [%]
NC(=O)c1ccc(/C=C/C(c2cc(Cl)cc(Cl)c2)C(F)(F)F)cc1 (stereo not drawn) [AC2]	110 to 112			
O=C(NCCNC(=O)C(F)(F)F)c1ccc(/C=C/C(c2cc(Cl)c(Cl)c(Cl)c2)C(F)(F)F)cc1Br (stereo not drawn) [Compound F33]		50 to 100	A (50-100)	0 to 80
O=C(CC(F)(F)F)NNC(=O)c1ccc(/C=C/C(c2cc(Cl)c(Cl)c(Cl)c2)C(F)(F)F)cc1Br (stereo not drawn) [Compound F1]		50 to 100	A (50-100)	

Reference: patent publication US9510592B2, “Pesticidal compositions and processes related thereto” (Dow AgroSciences LLC, priority 2012, dated 2016)
